Test results reported in patent US10851132B2, “Protein based adhesive composition and method” (SEWON BIOTECHNOLOGY INC., priority 2015, dated 2020).
Ends that are not written are not given here.

Columns and labels:
[1] = Affinity chromatography with GlcNAc-agarose beads; format: binding; settings: Examples 11 and 12; FIG. 11, FIG. 12
Description: (§1) For chromatography, heparin-agarose beads (Biovision) and GlcNAc-agarose beads (Sigma) were used. 10 ng of FITC labelled peptide (F-peptide) was mixed in PBS-T buffer with heparin-agarose beads and GlcNAc-agarose beads, each precoated with BSA, and incubated at RT for 10 min. Then the mixture was washed 3 times with PBS-T buffer and resuspended in PBS for fluorescent measurement. For competitive binding experiments, the present peptide not labelled with FITC (Cold) was added to the mixture at various ratios of 1:1, 1:10 (10 times) and 1:100 (100 times) and allowed for incubation followed by fluorescent measurement. As a negative control, only FITC dyes were used to react with the beads. Further fluorescent signals from a sample containing just beads suspended in PBS were used as a blank.
(§2) The peptides as listed and described in Table 2 were synthesized as described in Example 1 and tested for its adhesiveness to heparin and N-Acetylglucosamine (GAG) according to the methods described in Example 5.

[2] = Affinity chromatography with heparin-agarose beads; format: binding; settings: Examples 11 and 12; FIG. 11, FIG. 12
Description: as §1, §2

MC3T3-E1 = assay: Comparative cell attachment experiment with soluble RGDs (CCK-8); format: cell-based, Mouse; settings: RGDs peptides used alone, 0-1000 μM; FIG. 4C
Description: The present peptide A7-1 (10 μM) or A7-1 together with soluble RGDs peptide (0, 10, 100 and 1000 μM) for competition assay were added to anchorage dependent cells MC3T3-E1 in a test tube and incubated for 10 min. Then the cells were transferred to a culture plate and incubated for 10 min in a thermostatic incubator to allow the cells to attach. After 10 min, the medium was removed and the cells were washed 2 times with PBS to remove any unattached cells and a fresh medium without the peptide and CCK-8 (Dojindo) were added to the cells and incubated for 1 hr in a thermostatic incubator. Then the absorbance was measured at 450 nm. The medium mixed with CCK-8 only was used as a blank.

osteoblast MC3TC-E1 = assay: Safety in osteoblasts: proliferation, viability, differentiation; format: cell-based, Mouse; settings: 0.1, 1, 10 and 100 μM
Description: The safety of the present peptides was determined using osteoblast MC3TC-E1. Osteoblasts were treated with A7-1 peptide as prepared in Example 1 at the concentration of 0.1 μM, 1 μM, 10 μM and 100 μM. Then the effect of the present peptide on the proliferation (FIG. 8A), viability (FIG. 8B) and differentiation (FIG. 8C) on the cells was examined. For testing the effect on the […], MC3T3-E1 and C2C12 cell lines were treated with BMP (rhBMP2, 10 ng/ml for 3 days) and differentiation medium for bone formation for 6 days to induce differentiation. The results were examined by cell staining. It is observed that the present peptide has no effect on the proliferation rate, viability rate or whether or not the cells are differentiated.

KQLVVKFRALPC [SEQ ID NO: 21]
adhesiveness to N-Acetylglucosamine (GAG) [1]: working
adhesiveness to heparin [2]: working

RGDs: soluble RGDs peptides used as a competitor; binds to adhesive molecule integrins (RGDS)
adhesiveness of the cells (MC3T3-E1): decreased in a concentration dependent manner

RQLVVKFRALPC [A7-1]
effect on proliferation rate (osteoblast MC3TC-E1; FIG. 8A): no effect
effect on viability rate (osteoblast MC3TC-E1; FIG. 8B): no effect
effect on whether or not the cells are differentiated (osteoblast MC3TC-E1; FIG. 8C): no effect
